Assays:
[1] = target: T1, HCV C159S/K136A double mutant (Hepatitis C virus genotype 1b, UniProt P26663, C1185S/K1162A); assay: MALDI MS of intact HCV protease C159S/K136A double mutant; assay type: binding; details: 1 hr, 10× fold excess
T1 construct: The single-chain proteolytic domain (NS4A21-32-GSGS-NS33-631) was cloned into pET-14b; His tag (own knowledge of vector pET-14b); made in house; host or cells: Escherichia coli BL21
Experimental: (§1) Intact HCV (protease) 1bWT, C159S, and C159S/K136A were incubated for 1 hr at a 10× fold excess of XVI-26 to protein. 3 μl aliquots of the samples were diluted with 10 μl of 0.1% TFA prior to micro C4 ZipTipping directly onto the MALDI target using Sinapinic acid as the desorption matrix (10 mg/mL in 0.1% TFA:Acetonitrile 50:50).

[2] = target: T2, HCV NS3/4A 1b protease enzyme (wild type) (Hepatitis C virus genotype 1b, UniProt P26663); assay: HCV protease FRET assay (IC50_APP), wild type NS3/4A 1b; assay type: biochemical
T2 construct: 10× stocks of NS3/4A protease enzyme from Bioenza (Mountain View, Calif.); purchased Bioenza
How it was run: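 Wild-type NS3/4A 1b protease with serially diluted compounds (from 50% DMSO stocks); reaction started at once with FRET substrate and followed 60-90 min at ex485/em520. Initial velocities (0 to 15+ min) normalised to no-inhibitor and no-enzyme controls; apparent IC50 from variable-slope log[inhibitor]-response fit.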

[3] = tested on: NS3/4A self-cleavage activity in Huh-7 cells; assay: Prolonged duration of action (washout), NS3 self-cleavage in transfected Huh-7 cells; assay type: cell-based; details: FIG. 11
Experimental: Parental Huh-7 cells were plated at a density of 1.75×10^6 cells per 100 mm dish in media with 10% FBS. The following day, cells were transfected in OptiMEM using 28 ug of plasmid and 112 ul of Lipfectamine 2000 (Invitrogen), according to manufacturer's instructions. After 4 hours incubation with the transfection complex, the media was changed to Replicon Assay Medium (RPMI supplemented with 5% FBS, 1× non-essential amino acids and pen/strep). The next morning, the cells were trypsinized, counted and replated in Replicon Media at a density of 20,000 cells/well of a 12 well plate (4 wells per genotype). Cells were allowed to adhere to the plate, then the media was removed and replaced with 1 ml media containing XVI-26, (3 wells per compound) and 0.02% DMSO and returned to the incubator overnight. Sixteen hours later 1 treated well from each genotype (0 hr sample) and 1 untreated well were washed with PBS, then lysed and scraped into 30 ul of Cell Extraction Buffer (Biosource, Camarillo, Calif.) plus Complete Protease Inhibitor (Roche, Indianapolis, Ind.). The remaining wells were rinsed 2× with PBS then fed with Replicon Media and returned to the incubator. […] Lysates were resolved using standard immunoblotting methods and NS3 self-cleavage activity was assessed and quantified relative to untreated samples.

[4] = target: T3, HCV protease C159S mutant (Hepatitis C virus genotype 1b, UniProt P26663, C1185S); assay: MALDI MS of intact HCV protease C159S incubated with compound; assay type: binding; details: 1 hr, 10× fold excess
T3 construct: The single-chain proteolytic domain (NS4A21-32-GSGS-NS33-631) was cloned into pET-14b; His tag (own knowledge of vector pET-14b); made in house; host or cells: Escherichia coli BL21
Experimental: as §1

HCV NS3 protease WT 1b = target: T4, HCV NS3 protease WT 1b (Hepatitis C virus genotype 1b, UniProt P26663); assay: MALDI MS of intact HCV protease 1b WT incubated with compound; assay type: binding
T4 construct: The single-chain proteolytic domain (NS4A21-32-GSGS-NS33-631) was cloned into pET-14b; His tag (own knowledge of vector pET-14b); made in house; host or cells: Escherichia coli BL21
Experimental: Intact HCV (protease) 1bWT was incubated for 1 hr at a 10× fold excess of XVI-26 to protein. 3 ul aliquots of the samples were diluted with 10 ul of 0.1% TFA prior to micro C4 ZipTipping directly onto the MALDI target using Sinapinic acid as the desorption matrix (10 mg/mL in 0.1% TFA:Acetonitrile 50:50). […] Due to likely protein misfolding during protein purification, a small portion of the misfolded protein was not modified.
In order to determine whether the modification of the protein occurred at lysine, the pH from the above experiment was increased from 7.4 to 10.0. Because the compound lysine adduct would be an amide any increase in pH would have minimal effect on the modified protein. If however, the modification occurred at cysteine the resultant thioester bond would be unstable and the compound would hydrolyze off the protein.
as §1
Intact HCV (protease) WT1b was incubated for 1 hr at a 10× fold excess of XVI-1 (mw=782.87) to protein. 3 μl aliquots of the samples were diluted with 10 μl of 0.1% TFA prior to micro C4 ZipTipping directly onto the MALDI target using Sinapinic acid as the desorption matrix (10 mg/mL in 0.1% TFA:Acetonitrile 50:50). […] Due to some protein misfolding during the purification of the protein, the unfolded portion of the protein can not react with XVI-1.

PI3Kβ = PI3Kβ (Homo sapiens, UniProt P42338); assay: MALDI MS of intact PI3Kβ incubated with compound; assay type: binding; details: 3 hr, 10× fold excess of compound to protein
Experimental: Intact PI3Kβ was incubated for 3 hr at a 10× fold access of compound to protein. 5 μL aliquots of the samples were diluted with 15 μL of 0.1% TFA prior to micro C4 ZipTipping directly onto the MALDI target using Sinapinic acid as the desorption matrix (10 mg/mL in 0.1% TFA:Acetonitrile 50:50). Spots were then analyzed via MALDI-MS. XXII-10 modified PI3Kβ 100% by 3h. XXII-8, XXII-6, XXIII-4, and XXIII-3 each provided between about 35% to about 55% modification.

HCT116 = assay: HCT116-WB assay; assay type: cell-based; details: Homo sapiens, HCT-116; read-out: HCT116-WB Inhibition Designation

Sequence of PI3Kβ (P42338 whole entry): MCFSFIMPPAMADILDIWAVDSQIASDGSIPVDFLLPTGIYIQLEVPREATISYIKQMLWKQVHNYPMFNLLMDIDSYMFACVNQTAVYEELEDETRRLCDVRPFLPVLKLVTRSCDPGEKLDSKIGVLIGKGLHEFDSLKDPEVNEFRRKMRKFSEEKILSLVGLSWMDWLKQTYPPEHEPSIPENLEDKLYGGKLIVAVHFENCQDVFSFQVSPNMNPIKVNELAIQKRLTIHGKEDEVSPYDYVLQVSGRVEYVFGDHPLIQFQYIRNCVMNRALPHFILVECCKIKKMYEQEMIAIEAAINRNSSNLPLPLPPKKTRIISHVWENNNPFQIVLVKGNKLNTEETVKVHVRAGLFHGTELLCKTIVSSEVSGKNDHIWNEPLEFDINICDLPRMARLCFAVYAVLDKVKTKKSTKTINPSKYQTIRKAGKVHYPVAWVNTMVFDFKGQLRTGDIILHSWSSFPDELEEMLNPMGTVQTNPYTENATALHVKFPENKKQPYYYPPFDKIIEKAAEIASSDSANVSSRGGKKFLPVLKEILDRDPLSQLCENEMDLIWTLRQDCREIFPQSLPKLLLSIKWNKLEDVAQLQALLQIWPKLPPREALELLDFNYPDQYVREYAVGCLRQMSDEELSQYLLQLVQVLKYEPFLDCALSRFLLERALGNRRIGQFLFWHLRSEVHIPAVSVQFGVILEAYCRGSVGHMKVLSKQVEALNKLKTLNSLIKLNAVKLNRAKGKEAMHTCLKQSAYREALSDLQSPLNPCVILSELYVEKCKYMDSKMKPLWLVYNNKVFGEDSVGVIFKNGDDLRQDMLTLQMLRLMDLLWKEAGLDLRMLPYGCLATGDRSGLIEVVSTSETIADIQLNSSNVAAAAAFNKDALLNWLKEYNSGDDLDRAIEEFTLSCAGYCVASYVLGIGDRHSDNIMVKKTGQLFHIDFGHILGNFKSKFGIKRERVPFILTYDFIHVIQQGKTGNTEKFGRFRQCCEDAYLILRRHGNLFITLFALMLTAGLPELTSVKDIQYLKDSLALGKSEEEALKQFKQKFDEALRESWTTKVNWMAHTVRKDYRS
Sequence of PI3Kβ (P27986 whole entry partner): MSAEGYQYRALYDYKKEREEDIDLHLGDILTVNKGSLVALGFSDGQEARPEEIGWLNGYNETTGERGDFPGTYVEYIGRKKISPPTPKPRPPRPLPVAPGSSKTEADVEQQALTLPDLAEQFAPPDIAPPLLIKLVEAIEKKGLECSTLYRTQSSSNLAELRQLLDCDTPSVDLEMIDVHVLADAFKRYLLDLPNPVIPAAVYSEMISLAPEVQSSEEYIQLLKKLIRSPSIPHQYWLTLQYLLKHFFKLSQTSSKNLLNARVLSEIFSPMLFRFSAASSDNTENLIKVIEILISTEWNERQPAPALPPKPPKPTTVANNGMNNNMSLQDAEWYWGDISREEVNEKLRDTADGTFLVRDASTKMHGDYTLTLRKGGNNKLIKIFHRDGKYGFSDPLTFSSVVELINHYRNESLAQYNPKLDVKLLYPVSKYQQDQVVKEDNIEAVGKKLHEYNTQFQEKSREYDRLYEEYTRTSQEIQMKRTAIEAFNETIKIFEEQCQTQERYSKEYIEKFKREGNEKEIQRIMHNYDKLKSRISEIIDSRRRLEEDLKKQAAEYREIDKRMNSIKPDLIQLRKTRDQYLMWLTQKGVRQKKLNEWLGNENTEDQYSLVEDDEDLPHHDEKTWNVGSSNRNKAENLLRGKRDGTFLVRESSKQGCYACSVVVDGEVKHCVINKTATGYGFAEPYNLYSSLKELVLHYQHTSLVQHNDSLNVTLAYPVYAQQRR

| SMILES | modification of HCV C159S/K136A [1] | IC50 [2] [nM] | duration of action after washout [3] | positive mass shift of HCV C159S [4] [Da] | stability of adduct at raised pH (HCV NS3 protease WT 1b; 1 hour at pH 7.4 followed by 2 hours at pH 10) | MS_HCVNS3_INTACT_NS3 WT 1b 1 HR (HCV NS3 protease WT 1b; WT 1b, 1 HR) | modification of PI3Kβ (PI3Kβ) [%] | IC50 (HCT116) [nM] |
| --- | --- | --- | --- | --- | --- | --- | --- | --- |
| C=C[C@@H]1C[C@]1(NC(=O)[C@@H]1CC(Oc2cc(-c3ccccc3)nc3cc(OC)ccc23)CN1C(=O)[C@H](CCC(=O)N1CCC1=O)NC(=O)OC(C)(C)C)C(=O)NS(=O)(=O)C1CC1 (some centres unmarked) [XVI-26] | no modification | < 1 | prolonged duration of action | 770 | did not come off of the protein | H (>50% and ≤70% modification) | – | – |
| C=CS(=O)(=O)N(C)Cc1cc2nc(-c3cccc(O)c3)nc(N3CCOCC3)c2s1 [XXII-10] | – | – | – | – | – | – | 100 | 100 to 1000 |
